Reference: patent US20260028350A1, “TOXIN MOLECULE SUITABLE FOR ANTIBODY-DRUG CONJUGATE” (Minghui Pharmaceutical (Hangzhou) Limited, priority 2022, published 2026)

System: KPL-4 Cells
Assay: Cell proliferation inhibition test (CellTiter-Glo, 72h)
Assay type: cell-based
Settings: 72h incubation, Table 2 run
Procedure: KPL-4 Cells in the logarithmic phase of growth were collected and re-suspended with fresh RPMI1640 complete cell culture medium, and adjusted to 2×10^4 cells/mL after cell counting. Cells were seeded into 96-well cell culture plates at 100 µL/well, and placed in a CO2 incubator (37° C., 5% CO2) overnight. In the next day, one of the cell culture plates were taken out, balanced to room temperature, and CellTiter-Glo reagent (Promega, USA), which was pre-balanced to room temperature and evenly mixed, was added into the plate at 100 μl. The plate was kept in dark for 30 min, and then luminescence value was read with a microplate reader (denoted as Go value). The other cell culture plates were taken out and added with different concentrations of test compounds or DMSO (final concentration 0.5%) in corresponding wells. After incubated for 72h in a CO2 incubator, the cell culture plates were balanced to room temperature and tested for cell viabilities using CellTiter-Glo reagent as described above (denoted as G3 value).
DXd was used as a positive reference compound with the following structure:
The cell proliferation rates were calculated using the following formula: Cell proliferation rate (%)=(mean of G3compound−mean of G0)/(mean of G3DMSO−mean of G0)×100.

| SMILES | GI50 [nM] |
| --- | --- |
| CC[C@@]1(O)C(=O)OCc2c1cc1n(c2=S)Cc2c-1nc1cc(F)c(C)c3c1c2[C@@H](NC(=O)C1CCC(O)CC1)CC3 (stereo partly shown) [Example 33] | 6.34 |
| CC[C@@]1(O)C(=O)OCc2c1cc1n(c2=S)Cc2c-1nc1cc(F)c(C)c3c1c2[C@@H](NC(=O)C1CC(O)C1)CC3 (stereo partly shown) [Example 30] | 11.3 |
| CC[C@@]1(O)C(=O)OCc2c1cc1n(c2=S)Cc2c-1nc1cc(F)c(C)c3c1c2[C@@H](NC(=O)C1CCC(O)CC1)CC3 (stereo partly shown) [Example 32] | 8.47 |
| CC[C@@]1(O)C(=O)OCc2c1cc1n(c2=S)Cc2c-1nc1cc(F)c(C)c3c1c2[C@@H](NC(=O)C1CC(O)C1)CC3 (stereo partly shown) [Example 29] | 5.96 |

Same assay, conditions: KPL4, 72 h, 72h incubation, Table 1 run (DXd: average of 2 measurements)

| SMILES | GI50 [nM] |
| --- | --- |
| CC[C@@]1(O)C(=O)OCc2c1cc1n(c2=S)Cc2c-1nc1cc(F)c(C)cc1c2CCCCO [Example 4] | 2.23 |
| CC[C@@]1(O)C(=O)OCc2c1cc1n(c2=O)Cc2c-1nc1cc(F)c(C)c3c1c2[C@@H](NC(=O)CO)CS3 [DXd, reference compound] | 45.4 |
| CC[C@@]1(O)C(=O)OCc2c1cc1n(c2=S)Cc2c-1nc1cc(F)c(C)cc1c2CN [Example 2] | 2.82 |
| CC[C@@]1(O)C(=O)OCc2c1cc1n(c2=S)Cc2c-1nc1cc(F)c(C)cc1c2CNC(=O)CO [Example 3] | 6.27 |
| CC[C@@]1(O)C(=O)OCc2c1cc1n(c2=S)Cc2c-1nc1ccc(N)c3c1c2CCC3 [Example 5] | 1.84 |

Same assay, conditions: KPL4, 72 h, 72h incubation, Table 2 run

| SMILES | GI50 [nM] |
| --- | --- |
| CC[C@@]1(O)C(=O)OCc2c1cc1n(c2=S)Cc2c-1nc1cc(F)c(C)cc1c2CNC(=O)C1CCC(O)CC1 (stereo partly shown) [Example 21] | 16.8 |
| CC[C@@]1(O)C(=O)OCc2c1cc1n(c2=S)Cc2cc3c(CCCCO)c(C)c(F)cc3nc2-1 [Example 6] | 3.45 |
| CC[C@@]1(O)C(=O)OCc2c1cc1n(c2=S)Cc2cc3cc(N)c(F)cc3nc2-1 [Example 13] | 0.63 |
| CC[C@@]1(O)C(=O)OCc2c1cc1n(c2=S)Cc2c-1nc1cc3c(cc1c2CNC(=O)C(O)C1CC1)OCO3 (stereo partly shown) [Example 14] | 3.49 |
| CC[C@@]1(O)C(=O)OCc2c1cc1n(c2=S)Cc2c-1nc1cc(F)c(C)c3c1c2[C@@H](NC(=O)C[C@@H](C)O)CC3 [Example 26] | 3.24 |
| CC[C@@]1(O)C(=O)OCc2c1cc1n(c2=S)Cc2c-1nc1cc(F)c(C)c3c1c2[C@@H](NC(=O)C1CC(O)C1)CC3 (stereo partly shown) [Example 28] | 10.8 |
| CC[C@@]1(O)C(=O)OCc2c1cc1n(c2=S)Cc2c-1nc1cc3c(cc1c2CCNC(C)C)OCO3 [Example 10] | 2.24 |
| CC[C@@]1(O)C(=O)OCc2c1cc1n(c2=O)Cc2c-1nc1cc(F)c(C)c3c1c2[C@@H](NC(=O)CO)CS3 [DXd, reference compound] | 22.8 |
| CC[C@@]1(O)C(=O)OCc2c1cc1n(c2=S)Cc2c-1nc1cc(F)c(C)cc1c2CNC(=O)C(O)C1CC1 (stereo partly shown) [Example 23] | 1.73 |
| CC[C@@]1(O)C(=O)OCc2c1cc1n(c2=S)Cc2c-1nc1ccccc1c2CCNC(C)C [Example 11] | 6.48 |
| CC[C@@]1(O)C(=O)OCc2c1cc1n(c2=S)Cc2c-1nc1cc(F)c(C)c3c1c2[C@@H](NC(=O)C1CCC(O)CC1)CC3 (stereo partly shown) [Example 31] | 8.62 |
| CC[C@@]1(O)C(=O)OCc2c1cc1n(c2=S)Cc2c-1nc1cc3c(cc1c2CNC(=O)C[C@H](C)O)OCO3 [Example 19] | 4.27 |
| CC[C@@]1(O)C(=O)OCc2c1cc1n(c2=S)Cc2c-1nc1cc3c(cc1c2CNC(=O)CN)OCO3 [Example 9] | 12.2 |
| CC[C@@]1(O)C(=O)OCc2c1cc1n(c2=S)Cc2c-1nc1cc(F)c(C)cc1c2CNC(=O)C[C@H](C)O [Example 24] | 2.81 |
| CC[C@@]1(O)C(=O)OCc2c1cc1n(c2=S)Cc2c-1nc1cc3c(cc1c2CNC(=O)CO)OCO3 [Example 8] | 12 |
| CC[C@@]1(O)C(=O)OCc2c1cc1n(c2=S)Cc2c-1nc1cc3c(cc1c2C12CC(N)(C1)C2)OCO3 [Example 12] | 2.98 |
| CC[C@@]1(O)C(=O)OCc2c1cc1n(c2=S)Cc2c-1nc1cc3c(cc1c2CNC(=O)C(C)O)OCO3 (stereo partly shown) [Example 15] | 4.13 |
| CC[C@@]1(O)C(=O)OCc2c1cc1n(c2=S)Cc2c-1nc1cc(F)c(C)cc1c2CNC(=O)C[C@@H](C)O [Example 25] | 2.21 |
| CC[C@@]1(O)C(=O)OCc2c1cc1n(c2=S)Cc2c-1nc1cc3c(cc1c2CNC(=O)C[C@@H](C)O)OCO3 [Example 18] | 4.35 |
| CC[C@@]1(O)C(=O)OCc2c1cc1n(c2=S)Cc2c-1nc1cc(F)c(C)c3c1c2[C@@H](NC(=O)C[C@H](C)O)CC3 [Example 27] | 2.93 |
| CC[C@@]1(O)C(=O)OCc2c1cc1n(c2=S)Cc2c-1nc1cc(F)c(C)cc1c2CNC(=O)C(C)O (stereo partly shown) [Example 22] | 2.81 |
| CC[C@@]1(O)C(=O)OCc2c1cc1n(c2=S)Cc2c-1nc1cc3c(cc1c2CNC(=O)C1CC(O)C1)OCO3 (stereo partly shown) [Example 16] | 14.5 |
